{"source": "paper PMC5217372", "about": "“Activation of SsoPK4, an Archaeal eIF2α Kinase Homolog, by Oxidized CoA” (Proteomes, 2015)", "key": {"rSsoPK4(284–635) [1]": {"biological_target": "T1, rSsoPK4(284–635) (Saccharolobus solfataricus, UniProt Q97U41)", "T1 construct": "gene SSO3182; residues 284–635 (catalytic and part of central helical repeat domain), N-terminal S-tag, C-terminal 33-residue fusion domain with polyhistidine motif, pET-29b, expressed in E. coli", "T1 sequence (Q97U41 284-635)": "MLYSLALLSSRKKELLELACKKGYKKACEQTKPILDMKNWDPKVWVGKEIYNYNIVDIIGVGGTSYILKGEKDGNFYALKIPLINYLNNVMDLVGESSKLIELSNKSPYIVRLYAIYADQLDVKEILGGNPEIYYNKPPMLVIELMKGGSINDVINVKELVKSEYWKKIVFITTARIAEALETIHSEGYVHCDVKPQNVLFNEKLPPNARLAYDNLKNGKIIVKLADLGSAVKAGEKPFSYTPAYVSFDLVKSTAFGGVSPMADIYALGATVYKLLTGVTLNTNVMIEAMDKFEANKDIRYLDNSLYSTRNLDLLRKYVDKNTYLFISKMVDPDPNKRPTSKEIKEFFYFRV", "test": "Filter paper [γ-32P]ATP kinase assay with MBP as phosphoacceptor, ATP routinely 100 µM, 5 mM MgCl2 and 5 mM MnCl2, 50 mM MOPS pH 7.0, 65 °C, in the presence of nucleotide effectors.", "format": "biochemical", "description": "(§1) Protein kinase activity was routinely assayed by the filter paper method of Corbin and Reimann as modified by Lower and Kennelly. The final volume of the assays was typically 50 μL. The quantity of rSsoPK4 assayed ranged from 0.1 to 5.0 µg. Both MgCl2 and MnCl2 were included at a final concentration of 5 mM each. The final concentration of [γ-^32P]ATP was 100 μM. The specific activity of the [γ-^32P]ATP generally ranged from 2 to 5 × 10^15 cpm/mol. Phosphoacceptor proteins were generally present at a concentration of 0.5–1.0 µg/µL. The assay mixture was typically incubated for a period of 30 min to one hour at 65 °C in 50 mM MOPS pH 7.0. On occasion, the proteins within the assay mixture were resolved by SDS-PAGE in order to identify the specific polypeptides that were phosphorylated. Radiolabeled species were visualized using an Instant Imager from Packard (Downers Grove, IL, USA)."}, "[2]": {"system": "rSsoPK4(284–635)T606D/S611D", "test": "Protein kinase activity assay of rSsoPK4(284–635)T606D/S611D", "format": "biochemical, Sulfolobus solfataricus"}, "rSsoPK4(284–635) [3]": {"system": "rSsoPK4(284–635)", "test": "Protein kinase activity assay (filter paper method, [γ-32P]ATP, 65 °C) of rSsoPK4(284–635)", "format": "biochemical, Sulfolobus solfataricus", "conditions": "for Vmax in the presence of CoAS-SCoA: CoAS-SCoA 1 mM; for Km / Vmax toward protein substrate: no CoAS-SCoA, label = protein substrate, estimated", "description": "as §1"}, "[4]": {"system": "rSsoPK4(284–635) T592D/T606D/S611D", "test": "Protein kinase activity assay of rSsoPK4(284–635) T592D/T606D/S611D", "format": "biochemical, Sulfolobus solfataricus", "conditions": "for Km / Vmax toward protein substrate: no CoAS-SCoA, label = protein substrate", "description": "Figure 9 CoAS-SCoA activates rSsoPK4(284–635), but not rSsoPK4(284–635) T592D/T606D/S611D, in a concentration-dependent manner. The activity of rSsoPK4(284–635) (OPEN […]) and rSsoPK4(284–635) T592D/T606D/S611D (OPEN CIRCLES) were assayed, in duplicate, in the presence of the indicated concentrations of CoAS-SCoA using MBP as substrate. Shown is a plot of the activity relative to that measured in the absence of CoAS-SCoA, which was normalized as 1.0, plus or minus mean average deviation."}, "[5]": {"substrate": "Nc1ncnc2c1ncn2[C@@H]1O[C@H](COP(=O)(O)OP(=O)(O)OP(=O)(O)O)[C@@H](O)[C@H]1O", "test": "Filter paper [32P]phosphate incorporation kinase assay with varied [γ-32P]ATP and mixed histones fixed at 70 µM as phosphoacceptor, 5 mM MgCl2 and 5 mM MnCl2, 50 mM MOPS pH 7.0, 65 °C; Lineweaver-Burk plot.", "format": "biochemical", "quoted_text": "Protein kinase activity was routinely assayed by the filter paper method of Corbin and Reimann [18] as modified by Lower and Kennelly [19]. The final volume of the assays was typically 50 μL. The quantity of rSsoPK4 assayed ranged from 0.1 to 5.0 µg. Both MgCl2 and MnCl2 were included at a final concentration of 5 mM each. The final concentration of [γ-^32P]ATP was 100 μM. The specific activity of the [γ-^32P]ATP generally ranged from 2 to 5 × 10^15 cpm/mol. Phosphoacceptor proteins were generally present at a concentration of 0.5–1.0 µg/µL. The assay mixture was typically incubated for a period of 30 min to one hour at 65 °C in 50 mM MOPS pH 7.0. On occasion, the proteins within the assay mixture were resolved by SDS-PAGE in order to identify the specific polypeptides that were phosphorylated. Radiolabeled species were visualized using an Instant Imager from Packard (Downers Grove, IL, USA)."}}, "note": "Values joined by “and” are separate entries in the source; they are usually repeats but may differ in a detail not shown here. Equal entries are not always repeated.", "data": [{"molecule": "Nc1ncnc2c1ncn2[C@@H]1O[C@H](CO)[C@H]2OP(=O)(O)O[C@H]21", "note": "[2ʹ,3ʹ-cAMP, 2ʹ,3ʹ-cyclic AMP]", "values": [{"measurement": "IC50", "setting": "rSsoPK4(284–635) [1]", "value": 1.55, "unit": "mM"}]}, {"molecule": "Nc1ncnc2c1ncn2[C@@H]1O[C@H](CO)[C@@H](OP(=O)(O)O)[C@H]1O", "note": "[3ʹ-AMP, adenosine 3'-monophosphate]", "values": [{"measurement": "IC50", "setting": "rSsoPK4(284–635) [1]", "value": 2.1, "unit": "mM"}]}, {"molecule": "Nc1ncnc2c1ncn2[C@@H]1O[C@H](COP(=O)(O)O)[C@@H](O)[C@H]1O", "note": "[5'AMP, adenosine 5'-monophosphate]", "values": [{"measurement": "IC50", "setting": "rSsoPK4(284–635) [1]", "value": 0.92, "unit": "mM"}]}, {"molecule": "Nc1ncnc2c1ncn2[C@@H]1O[C@H](COP(=O)(O)OP(=O)(O)O)[C@@H](O)[C@H]1O", "note": "[ADP, adenosine 5'-diphosphate]", "values": [{"measurement": "IC50", "setting": "rSsoPK4(284–635) [1]", "value": 0.19, "unit": "mM"}]}, {"molecule": "CC(C)(COP(=O)(O)OP(=O)(O)OC[C@H]1O[C@@H](n2cnc3c(N)ncnc32)C(O)[C@H]1OP(=O)(O)O)[C@@H](O)C(=O)NCCC(=O)NCCSSCCNC(=O)CCNC(=O)[C@H](O)C(C)(C)COP(=O)(O)OP(=O)(O)OC[C@H]1O[C@@H](n2cnc3c(N)ncnc32)C(O)[C@H]1OP(=O)(O)O", "note": "(stereo partly shown) [CoAS-SCoA, oxidized Coenzyme A]", "values": [{"measurement": "sensitivity of activity to oxidized CoA", "setting": "[2]", "value": "no longer sensitive"}, {"measurement": "Vmax in the presence of CoAS-SCoA", "setting": "rSsoPK4(284–635) [3]; protein substrate MBP (3.7 without)", "value": 4.8, "unit": "nmol/min/mg"}, {"measurement": "Vmax in the presence of CoAS-SCoA", "setting": "rSsoPK4(284–635) [3]; protein substrate aIF2α (4.2 without)", "value": 2.9, "unit": "nmol/min/mg"}, {"measurement": "effect on protein kinase activity toward MBP", "setting": "rSsoPK4(284–635) [3]; MBP substrate, compounds at 1 mM (Figure 8)", "value": "stimulate protein kinase activity toward MBP several-fold"}, {"measurement": "shift (lowering) of Km for aIF2α by oxidized CoA", "setting": "rSsoPK4(284–635) [3]; from ~48 µM in absence to ~6 µM in presence of oxidized CoA", "value": "~ 8 fold"}, {"measurement": "sensitivity of activity to oxidized CoA", "setting": "[4]; MBP as substrate (Figure 9)", "value": "no longer sensitive"}]}, {"molecule": "rSsoPK4(284–635) (Saccharolobus solfataricus P2) (protein, residues 284–635 (catalytic and part of central helical repeat domain), N-terminal S-tag, C-terminal 33-residue fusion domain with polyhistidine motif, pET-29b, expressed in E. coli) MLYSLALLSSRKKELLELACKKGYKKACEQTKPILDMKNWDPKVWVGKEIYNYNIVDIIGVGGTSYILKGEKDGNFYALKIPLINYLNNVMDLVGESSKLIELSNKSPYIVRLYAIYADQLDVKEILGGNPEIYYNKPPMLVIELMKGGSINDVINVKELVKSEYWKKIVFITTARIAEALETIHSEGYVHCDVKPQNVLFNEKLPPNARLAYDNLKNGKIIVKLADLGSAVKAGEKPFSYTPAYVSFDLVKSTAFGGVSPMADIYALGATVYKLLTGVTLNTNVMIEAMDKFEANKDIRYLDNSLYSTRNLDLLRKYVDKNTYLFISKMVDPDPNKRPTSKEIKEFFYFRV", "values": [{"measurement": "Km", "setting": "[5]", "value": 100, "unit": "µM"}]}, {"molecule": "aIF2α: recombinant protein product of ORF sso1050, archaeal homologue of eIF2α from S. solfataricus (protein, UniProt Q97Z79 1-266, looked up) Translation initiation factor …: MIYSRSKLPSEGEILIATVKQVFDYGSYVSLDEYGGLQAFLPWSEVSSKWVKNIRDVLKENRKVIVKVIRVDRRKGTVDVSLKKVTDDERRKKNLQWKKIQRLDKILELVSQKLKLSEKDAWEQVAWKLEAKYGDPITAIEKAVKEGEKILIDAGVPEIWVKPLLEEASKHAEERKVKMSGLITVRTNEPLGVEKIKEVISKALENIEQDYESLLNIKIYTIGAPRYRVDVVGTNPKEASEALNQIISNLIKIGKEENVDISVVKK", "values": [{"measurement": "Km", "setting": "rSsoPK4(284–635) [3]", "value": "~48 µM and 48 µM"}, {"measurement": "Vmax toward protein substrate", "setting": "rSsoPK4(284–635) [3]", "value": 4.2, "unit": "nmol/min/mg"}, {"measurement": "Km", "setting": "[4]", "value": 4, "unit": "µM"}, {"measurement": "Vmax toward protein substrate", "setting": "[4]", "value": 1.9, "unit": "nmol/min/mg"}]}, {"molecule": "MBP: myelin basic protein, exogenous phosphoacceptor substrate (protein, UniProt P02687 1-169, looked up) Myelin basic protein: AAQKRPSQRSKYLASASTMDHARHGFLPRHRDTGILDSLGRFFGSDRGAPKRGSGKDGHHAARTTHYGSLPQKAQGHRPQDENPVVHFFKNIVTPRTPPPSQGKGRGLSLSRFSWGAEGQKPGFGYGGRASDYKSAHKGLKGHDAQGTLSKIFKLGGRDSRSGSPMARR", "values": [{"measurement": "Km", "setting": "rSsoPK4(284–635) [3]", "value": 145, "unit": "µM"}, {"measurement": "Vmax toward protein substrate", "setting": "rSsoPK4(284–635) [3]", "value": 3.7, "unit": "nmol/min/mg"}, {"measurement": "Km", "setting": "[4]", "value": 17, "unit": "µM"}, {"measurement": "Vmax toward protein substrate", "setting": "[4]", "value": 4.2, "unit": "nmol/min/mg"}]}]}
